# Data: patent US7771713B2, “Chemical composition that attract arthropods” (priority 1999, dated 2010)
# What was measured:
# [1] = test system: Anopheles albimanus; test: Olfactometer attraction test of compounds and compositions; format: in vivo;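 also: olfactometer with a treatment port and a matching control port using identical delivery device and conditions, both opened together, three tests per battery, each run in its own cage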
# [2] = test system: Aedes aegypti; test: Olfactometer attraction test, treatment port vs control port, approximately 75 female mosquitoes; format: in vivo; conditions: for Response with L-LA (%): compound 500 μL together with L-lactic acid; for Response (%): compound alone, high dose of 500 μL; for Δ [(Resp with LA) − Resp] (%): difference between response with L-lactic acid and response alone
# Protocol: The tests were conducted in an olfactometer (55 ft^3/min airflow, 80° F., 60% R.H.) as described by Posey, J. Med. Entomol., 35, 330-334 (1998); and LA is lactic acid. Mosquitoes were allowed to settle at least one hour prior to testing. The olfactometer was cleaned after each battery of tests. Each battery consisted of three tests, conducted at 08:30, 11:00 and 13:00 hours local time. Each of the three tests was conducted in a separate cage. The control consisted of identical sample delivery devices and conditions compared to that of the treatment side. Both the treatment and control ports were opened and closed simultaneously when inserting a new treatment/control.
# [3] = single compound, dose 500 (μL), 60 mL glass petri dish, Aedes aegypti attraction
Structure (SMILES),"% caught ([1]; single treatment, 500 μL)",further results
CCSCC [diethyl sulfide],33.3%,Response with L-LA (%) [2]: 54%; Response (%) [2]: 15%; Δ [(Resp with LA) − Resp] (%) [2]: 39%
CCCCC(C)=O [2-hexanone],4.3%,"Response with L-LA (%) [2]: 51%; Response (%) [2]: 3%; Δ [(Resp with LA) − Resp] (%) [2]: 48%; Response Avg % [2, 3]: 3.0%"
C=CSCC [ethyl vinyl sulfide],25.4%,"Response with L-LA (%) [2]: 55%; Response (%) [2]: 18%; Δ [(Resp with LA) − Resp] (%) [2]: 37%; Response Avg % ([2]; no Base, Activator1 dose 500, 60 mL glass petri dish): 18.0%"
O=Cc1ccccc1 [benzaldehyde],35.5%,Response with L-LA (%) [2]: 21%; Response (%) [2]: 9%; Δ [(Resp with LA) − Resp] (%) [2]: 12%
CC(=O)C(=O)O [Pyruvic Acid],1.4%,"Response Avg % ([2]; Base alone, dose 50 uL): 30.7%"
CC(=O)CCC=C(C)C [6-methyl-5-hepten-2-one],26.0%,Response with L-LA (%) [2]: 16%; Response (%) [2]: 9%; Δ [(Resp with LA) − Resp] (%) [2]: 27%
N#Cc1ccccc1 [benzonitrile],3.8%,"Response with L-LA (%) [2]: 48%; Response (%) [2]: 4%; Δ [(Resp with LA) − Resp] (%) [2]: 42%; Response Avg % [2, 3]: 4.0%"
CCCCC(=O)C(C)C [2-Methyl-3-Heptanone],34.7%,–
C=CC(O)CCCCC (stereo not shown) [1-Octen-3-ol],24.0%,–
c1ccsc1 [Thiophene],68.0%,–
CCCCCC(=O)CC [3-Octanone],25.0%,–
"CCCC(=O)C(C)=O [2,3-Hexanedione]",2.7%,–
CCS [Ethanethiol],40.0%,–
CCCCCCCCCC(C)=O [2-Undecanone],4.2%,–
Nc1ccccn1 [2-Aminopyridine],0.0%,–
"CC(C)CC(=O)CC(C)C [2,6-Dimethyl-4-Heptanone]",18.7%,–
CCCCCCCC(=O)CC [3-Decanone],9.3%,–
CCCCCCC(=O)CCC [4-Decanone],7.8%,–
N#CC(Cl)(Cl)Cl [Trichloroacetonitrile],65.3%,–
"CC(Cl)(Cl)Cl [1,1,1-Trichloroethane]",61.0%,–
CCCCC [Pentane],2.7%,–
CCOC(C)=O [Ethyl Acetate],28.4%,–
O=CO [Formic Acid],–,% caught ([1]; in vivo): 0.0%

Structure (SMILES),"% caught ([1]; single treatment, 500 μL)",further results
"CC(=O)C=CC=C(C)C [6-Methyl-3,5-Heptadien-2-one]",18.7%,–
CCCCCC(=O)CCCCC [6-Undecanone],3.9%,–
OCc1ccco1 [Furfuryl Alcohol],46.7%,–
C=CCCCCCCCCCCCC [1-Tetradecene],1.4%,–
O=CC(=O)O [Glyoxylic Acid],1.3%,–
CN1CCNCC1 [1-Methylpiperazine],1.3%,–
CC(=O)C=C(C)C [Mesityl Oxide],28.4%,–
ClC=C(Cl)Cl [Trichloroethylene],57.9%,–
CCCCCCCCCCC(C)=O [2-Dodecanone],1.4%,–
O=C(O)CC(O)C(=O)O (racemic) [DL-Malic Acid],–,"% caught ([1]; single substance, Crys dish (crystalline solid)): 0.0%"
CCCS [1-Propanethiol],24.0%,–
CC(=O)O [Acetic Acid],2.7%,–
"ClCC(Cl)Cl [1,1,2-Trichloroethane]",64.4%,–
CCCCCCCCCCCC(=O)O [Laurie Acid],1.3%,–
ClC(Cl)=C(Cl)Cl [Tetrachloroethylene],17.3%,–
C=CCSSCC=C [Allyl Disulfide],0.0%,–
c1cnccn1 [Pyrazine],29.3%,–
"O=C(CCl)C(Cl)Cl [1,1,3-Trichloroacetone]",5.6%,–
CC(C)S [2-Thiopropane],20.5%,–
CCCCCCCCCCCC(C)=O [2-Tridecanone],1.3%,–
CC(=O)CCC(C)=O [Acetonylacetone],0.0%,–
CC1=CC(=O)CC(C)(C)C1 [Isophorone],13.3%,–
